{"source": "the supplement of paper PMC10307832"}
{"compound": "O=C(/C=C/c1ccccc1)NC(NC(=S)Nc1cccc2cccnc12)C(Cl)(Cl)Cl [Salubrinal] + CC1(C)CCC(c2ccc(Cl)cc2)=C(CN2CCN(c3ccc(C(=O)NS(=O)(=O)c4ccc(N[C@H](CCN5CCOCC5)CSc5ccccc5)c(S(=O)(=O)C(F)(F)F)c4)cc3)CC2)C1 [Navitoclax] (partner 0.5 µM)", "assay": "relative viability (nuclei count vs DMSO), 5 days (fraction); higher = more cells survive", "settings": "first compound 0.08 µM", "procedure,_shortened": "(§1)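 Relative viability equals treated-well nuclei counts divided by vehicle-well nuclei counts. Counts came from 4× images of lung cancer cell lines grown in 1536-well plates for 5 days after pin-tool dosing on the day after seeding. Dosing used one drug alone or a fixed anchor-drug dose plus five library-drug doses (not always all listed) in √10 steps, and values are medians of duplicate plates.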"}
{"cell line": "NCI-H2405", "relative viability": 0.942}
{"cell line": "HOP-62", "relative viability": 1.04}
{"cell line": "SK-MES-1", "relative viability": 1.39}
{"cell line": "LU99A", "relative viability": 0.942}
{"cell line": "BEN", "relative viability": 0.0699}
{"cell line": "HARA", "relative viability": 1.05}
{"cell line": "HCC-78", "relative viability": 0.851}
{"cell line": "NCI-H322M", "relative viability": 1.38}
{"cell line": "LCLC-97TM1", "relative viability": 0.368}
{"cell line": "NCI-H2009", "relative viability": 1.16}
{"cell line": "A-427", "relative viability": 0.942}
{"cell line": "NCI-H441", "relative viability": 0.437}
{"cell line": "NCI-H1734", "relative viability": 0.938}
{"cell line": "NCI-H460", "relative viability": 1.43}
{"cell line": "NCI-H2347", "relative viability": 0.928}
{"cell line": "SK-LU-1", "relative viability": 0.917}
{"cell line": "NCI-H1395", "relative viability": 1.08}
{"cell line": "201T", "relative viability": 1.2}
{"cell line": "NCI-H1915", "relative viability": 0.774}
{"cell line": "HCC-827", "relative viability": 1.03}
{"cell line": "LXF-289", "relative viability": 0.99}
{"cell line": "NCI-H23", "relative viability": 1.01}
{"cell line": "NCI-H647", "relative viability": 1.31}
{"cell line": "CAL-12T", "relative viability": 1.29}
{"cell line": "NCI-H1651", "relative viability": 1.1}
{"cell line": "EPLC-272H", "relative viability": 1.23}
{"cell line": "NCI-H2228", "relative viability": 1.43}
{"cell line": "NCI-H1355", "relative viability": 1.02}
{"cell line": "NCI-H3122", "relative viability": 1.09}
{"cell line": "NCI-H1437", "relative viability": 1.14}
{"cell line": "NCI-H1755", "relative viability": 1.04}
{"cell line": "NCI-H2023", "relative viability": 1.05}
{"compound": "O=C(/C=C/c1ccccc1)NC(NC(=S)Nc1cccc2cccnc12)C(Cl)(Cl)Cl [Salubrinal] + CC1(C)CCC(c2ccc(Cl)cc2)=C(CN2CCN(c3ccc(C(=O)NS(=O)(=O)c4ccc(N[C@H](CCN5CCOCC5)CSc5ccccc5)c(S(=O)(=O)C(F)(F)F)c4)cc3)CC2)C1 [Navitoclax] (partner 0.5 µM)", "assay": "relative viability (nuclei count vs DMSO), 5 days (fraction); higher = more cells survive", "settings": "first compound 0.253 µM", "procedure,_shortened": "as §1"}
{"cell line": "NCI-H2405", "relative viability": 0.957}
{"cell line": "HOP-62", "relative viability": 0.822}
{"cell line": "SK-MES-1", "relative viability": 1.12}
{"cell line": "LU99A", "relative viability": 0.864}
{"cell line": "BEN", "relative viability": 0.0611}
{"cell line": "HARA", "relative viability": 1.18}
{"cell line": "HCC-78", "relative viability": 0.835}
{"cell line": "NCI-H322M", "relative viability": 1.19}
{"cell line": "LCLC-97TM1", "relative viability": 0.648}
{"cell line": "NCI-H2009", "relative viability": 1.18}
{"cell line": "A-427", "relative viability": 1.01}
{"cell line": "NCI-H441", "relative viability": 0.711}
{"cell line": "NCI-H1734", "relative viability": 0.755}
{"cell line": "NCI-H460", "relative viability": 0.487}
{"cell line": "NCI-H2347", "relative viability": 0.86}
{"cell line": "SK-LU-1", "relative viability": 0.745}
{"cell line": "NCI-H1395", "relative viability": 1.26}
{"cell line": "201T", "relative viability": 1.2}
{"cell line": "NCI-H1915", "relative viability": 0.778}
{"cell line": "HCC-827", "relative viability": 0.958}
{"cell line": "LXF-289", "relative viability": 0.898}
{"cell line": "NCI-H23", "relative viability": 0.722}
{"cell line": "NCI-H647", "relative viability": 1.12}
{"cell line": "CAL-12T", "relative viability": 0.952}
{"cell line": "NCI-H1651", "relative viability": 1.01}
{"cell line": "EPLC-272H", "relative viability": 1.02}
{"cell line": "NCI-H2228", "relative viability": 0.661}
{"cell line": "NCI-H1355", "relative viability": 1.07}
{"cell line": "NCI-H3122", "relative viability": 1.01}
{"cell line": "NCI-H1437", "relative viability": 1.06}
{"cell line": "NCI-H1755", "relative viability": 0.983}
{"cell line": "NCI-H2023", "relative viability": 0.733}
{"compound": "O=C(/C=C/c1ccccc1)NC(NC(=S)Nc1cccc2cccnc12)C(Cl)(Cl)Cl [Salubrinal] + CC1(C)CCC(c2ccc(Cl)cc2)=C(CN2CCN(c3ccc(C(=O)NS(=O)(=O)c4ccc(N[C@H](CCN5CCOCC5)CSc5ccccc5)c(S(=O)(=O)C(F)(F)F)c4)cc3)CC2)C1 [Navitoclax] (partner 0.5 µM)", "assay": "relative viability (nuclei count vs DMSO), 5 days (fraction); higher = more cells survive", "settings": "first compound 0.8 µM", "procedure,_shortened": "as §1"}
{"cell line": "NCI-H2405", "relative viability": 0.793}
{"cell line": "HOP-62", "relative viability": 1.09}
{"cell line": "SK-MES-1", "relative viability": 1.33}
{"cell line": "LU99A", "relative viability": 0.798}
{"cell line": "BEN", "relative viability": 0.0613}
{"cell line": "HARA", "relative viability": 1.13}
{"cell line": "HCC-78", "relative viability": 0.982}
{"cell line": "NCI-H322M", "relative viability": 1.34}
{"cell line": "LCLC-97TM1", "relative viability": 0.464}
{"cell line": "NCI-H2009", "relative viability": 1.19}
{"cell line": "A-427", "relative viability": 1.08}
{"cell line": "NCI-H441", "relative viability": 0.642}
{"cell line": "NCI-H1734", "relative viability": 0.964}
{"cell line": "NCI-H460", "relative viability": 1.45}
{"cell line": "NCI-H2347", "relative viability": 0.75}
